Results: US8802597B2, “Herbicidal pyrimidines” (E I du Pont de Nemours and Company, priority 2003, dated 2014)

Legend:
Format in all cases: in vivo
[1] = tested on: barnyardgrass (Echinochloa crus-galli); experiment: Test A pre/postemergence
Method in brief: (§1)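 Visual injury scored 0–100 (0 = no effect, 100 = complete control) against untreated controls after about ten days in the greenhouse. Compounds, formulated in non-phytotoxic solvent plus surfactant, were applied preemergence as a directed soil spray and postemergence at the 1- to 2-leaf stage (2–10 cm).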

[2] = tested on: giant foxtail (Setaria faberi); experiment: Test A pre/postemergence
Method in brief: as §1

[3] = tested on: bermudagrass (Cynodon dactylon); experiment: Test C pre/postemergence; conditions: Postemergence; for Bermudagrass plant response rating: scale 0 to 100 (0 no effect, 100 complete control); for Plant response rating, Bermudagrass: scale 0 to 100
Method in brief: (§2)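 Pre: seeds planted, sprayed same day. Post: 1- to 4-leaf plants (2–18 cm). Formulation: non-phytotoxic solvent + surfactant. Greenhouse 12–14 d; visual % control vs untreated, 0–100.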

[4] = tested on: cocklebur (Xanthium strumarium); experiment: Test C pre/postemergence; conditions: Postemergence; for Cocklebur plant response rating: scale 0 to 100 (0 no effect, 100 complete control); for Plant response rating, Cocklebur: scale 0 to 100
Method in brief: as §2

[5] = tested on: corn (Zea mays); experiment: Test C pre/postemergence; conditions: Postemergence; for Corn plant response rating: scale 0 to 100 (0 no effect, 100 complete control); for Plant response rating, Corn: scale 0 to 100
Method in brief: as §2

[6] = tested on: crabgrass (Digitaria sanguinalis); experiment: Test C pre/postemergence; conditions: Postemergence; for Crabgrass plant response rating: scale 0 to 100 (0 no effect, 100 complete control); for Plant response rating, Crabgrass: scale 0 to 100
Method in brief: as §2

[7] = tested on: goosegrass (Eleusine indica); experiment: Test C pre/postemergence; conditions: Postemergence; for Goosegrass plant response rating: scale 0 to 100 (0 no effect, 100 complete control); for Plant response rating, Goosegrass: scale 0 to 100
Method in brief: as §2

[8] = tested on: lambsquarters (Chenopodium album); experiment: Test C pre/postemergence; conditions: Postemergence; for Lambsquarters plant response rating: scale 0 to 100 (0 no effect, 100 complete control); for Plant response rating, Lambsquarters: scale 0 to 100
Method in brief: as §2

[9] = tested on: velvetleaf (Abutilon theophrasti); experiment: Test C pre/postemergence; conditions: Postemergence; for Velvetleaf plant response rating: scale 0 to 100 (0 no effect, 100 complete control); for Plant response rating, Velvetleaf: scale 0 to 100
Method in brief: as §2

[10] = Postemergence, 125 g ai/ha, 0 to 100 scale (0 no effect, 100 complete control)
[11] = Postemergence, 500 g ai/ha, 0 to 100 scale (0 no effect, 100 complete control)
[12] = Preemergence, 125 g ai/ha, 0 to 100 scale where 0 is no effect and 100 is complete control, approximately ten days
[13] = Preemergence, 500 g ai/ha, 0 to 100 scale where 0 is no effect and 100 is complete control, approximately ten days

COC(=O)c1nc(-c2ccc(Cl)cc2)nc(N)c1Br [Compound 83]
Plant response rating, Barnyardgrass [1, 10]: 0 | Plant response rating, Barnyardgrass [1, 11]: 10 | Plant response rating, Barnyardgrass [1, 12]: 0 | Plant response rating, Barnyardgrass [1, 13]: 5 | Plant response rating, Foxtail, Giant [2, 10]: 0 | Plant response rating, Foxtail, Giant [2, 11]: 10 | Plant response rating, Foxtail, Giant [2, 12]: 0 | Plant response rating, Foxtail, Giant [2, 13]: 0 | Plant response rating (scale of 0 to 100), Bermudagrass ([3]; 16 g ai/ha): 0 | Plant response rating (scale of 0 to 100), Bermudagrass ([3]; 31 g ai/ha): 5 | Bermudagrass plant response rating ([3]; 62 g ai/ha): 20 | Bermudagrass plant response rating ([3]; 125 g ai/ha): 55 | Plant response rating (scale of 0 to 100), Cocklebur ([4]; 16 g ai/ha): 60 | Plant response rating (scale of 0 to 100), Cocklebur ([4]; 31 g ai/ha): 70 | Plant response rating (scale of 0 to 100), Cocklebur ([4]; 62 g ai/ha): 70 | Cocklebur plant response rating ([4]; 125 g ai/ha): 100 | Plant response rating (scale of 0 to 100), Corn ([5]; 16 g ai/ha): 5 | Plant response rating (scale of 0 to 100), Corn ([5]; 31 g ai/ha): 15 | Plant response rating (scale of 0 to 100), Corn ([5]; 62 g ai/ha): 50 | Corn plant response rating ([5]; 125 g ai/ha): 60 | Plant response rating (scale of 0 to 100), Crabgrass ([6]; 16 g ai/ha): 25 | Plant response rating (scale of 0 to 100), Crabgrass ([6]; 31 g ai/ha): 45 | Plant response rating (scale of 0 to 100), Crabgrass ([6]; 62 g ai/ha): 65 | Crabgrass plant response rating ([6]; 125 g ai/ha): 75 | Plant response rating (scale of 0 to 100), Goosegrass ([7]; 16 g ai/ha): 10 | Plant response rating (scale of 0 to 100), Goosegrass ([7]; 31 g ai/ha): 10 | Plant response rating (scale of 0 to 100), Goosegrass ([7]; 62 g ai/ha): 30 | Goosegrass plant response rating ([7]; 125 g ai/ha): 45 | Plant response rating (scale of 0 to 100), Lambsquarters ([8]; 16 g ai/ha): 90 | Plant response rating (scale of 0 to 100), Lambsquarters ([8]; 31 g ai/ha): 95 | Plant response rating (scale of 0 to 100), Lambsquarters ([8]; 62 g ai/ha): 95 | Lambsquarters plant response rating ([8]; 125 g ai/ha): 100 | Plant response rating (scale of 0 to 100), Velvetleaf ([9]; 16 g ai/ha): 70 | Plant response rating (scale of 0 to 100), Velvetleaf ([9]; 31 g ai/ha): 85 | Plant response rating (scale of 0 to 100), Velvetleaf ([9]; 62 g ai/ha): 85 | Velvetleaf plant response rating ([9]; 125 g ai/ha): 100

CC(=O)NN=Cc1nc(C2CC2)nc(N)c1Br [Compound 51]
Bermudagrass plant response rating ([3]; 62 g ai/ha): 0 | Bermudagrass plant response rating ([3]; 125 g ai/ha): 0 | Plant response rating, Bermudagrass ([3]; 250 g ai/ha): 0 | Plant response rating, Bermudagrass ([3]; 500 g ai/ha): 0 | Cocklebur plant response rating ([4]; 62 g ai/ha): 65 | Cocklebur plant response rating ([4]; 125 g ai/ha): 65 | Plant response rating, Cocklebur ([4]; 250 g ai/ha): 70 | Plant response rating, Cocklebur ([4]; 500 g ai/ha): 85 | Corn plant response rating ([5]; 62 g ai/ha): 0 | Corn plant response rating ([5]; 125 g ai/ha): 0 | Plant response rating, Corn ([5]; 250 g ai/ha): 0 | Plant response rating, Corn ([5]; 500 g ai/ha): 0 | Crabgrass plant response rating ([6]; 62 g ai/ha): 0 | Crabgrass plant response rating ([6]; 125 g ai/ha): 0 | Plant response rating, Crabgrass ([6]; 250 g ai/ha): 0 | Plant response rating, Crabgrass ([6]; 500 g ai/ha): 45 | Goosegrass plant response rating ([7]; 62 g ai/ha): 0 | Goosegrass plant response rating ([7]; 125 g ai/ha): 0 | Plant response rating, Goosegrass ([7]; 250 g ai/ha): 0 | Plant response rating, Goosegrass ([7]; 500 g ai/ha): 0 | Lambsquarters plant response rating ([8]; 62 g ai/ha): 60 | Lambsquarters plant response rating ([8]; 125 g ai/ha): 75 | Plant response rating, Lambsquarters ([8]; 250 g ai/ha): 85 | Plant response rating, Lambsquarters ([8]; 500 g ai/ha): 90 | Velvetleaf plant response rating ([9]; 62 g ai/ha): 0 | Velvetleaf plant response rating ([9]; 125 g ai/ha): 20 | Plant response rating, Velvetleaf ([9]; 250 g ai/ha): 60 | Plant response rating, Velvetleaf ([9]; 500 g ai/ha): 65
